# Measured values reported in ChEMBL document CHEMBL1201862, “PubChem BioAssay data set” (2004).
# Activity calls are given as the source filed them.
# What was measured:
# [1] = Luminescence Cell-Based Dose Retest to Confirm Inhibitors of Cancer Stem Cells. [Related pubchem assays (depositor defined):AID2717, AID2721]; format: functional; conditions: Homo sapiens
# [2] = target: Heat shock protein HSP 90-alpha (Homo sapiens, UniProt P07900); format: functional, organism-based
# [3] = target: T1, Oxysterols receptor LXR-beta (Homo sapiens, UniProt P55055); format: functional, cell-based;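 further: agonist activity at LXR measured by a cell-based luminescence readout across a dose range, run as a counterscreen for daf-12 agonists; HEK293 cells with Gal4-LXR fusion and GAL4-driven luciferase reporter; potency for activation of Gal4-LXR reporter so compounds are agonists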
# T1 sequence (P55055 whole entry): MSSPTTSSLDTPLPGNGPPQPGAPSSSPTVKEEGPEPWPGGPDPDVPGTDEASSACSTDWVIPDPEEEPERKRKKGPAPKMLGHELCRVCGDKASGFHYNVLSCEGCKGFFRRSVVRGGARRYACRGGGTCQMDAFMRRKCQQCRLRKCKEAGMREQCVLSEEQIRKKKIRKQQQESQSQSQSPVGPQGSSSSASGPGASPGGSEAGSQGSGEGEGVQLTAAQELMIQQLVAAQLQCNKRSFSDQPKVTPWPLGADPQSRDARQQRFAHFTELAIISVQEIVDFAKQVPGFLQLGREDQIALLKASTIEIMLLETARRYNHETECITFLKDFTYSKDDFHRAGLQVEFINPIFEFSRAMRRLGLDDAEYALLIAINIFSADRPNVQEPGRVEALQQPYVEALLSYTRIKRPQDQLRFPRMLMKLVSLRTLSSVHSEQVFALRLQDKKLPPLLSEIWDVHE
# [4] = A549 cell cytotoxicity, dose response, cytotoxicity control, plate reader, cherry-pick, antagonist series (AID 743412); format: functional, cell-based
# [5] = HepG2 cell cytotoxicity, dose response, cytotoxicity control, plate reader, cherry-pick, antagonist series (AID 743416); format: functional, cell-based
# [6] = LGR2 antagonists, dose response, cell-based, HEK293, CRE-luciferase reporter, cherry pick, set 2 (AID 743343); format: functional;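 further: transfected cells were stimulated with diluted bursicon conditioned medium after compound addition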
# [7] = MC4R antagonists, dose response, counter-screen for LGR2 antagonist project, cell-based, plate reader, cherry pick (AID 743444); format: functional;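 further: transfected HEK 293 cells stimulated with alpha-MSH peptide; potency of inhibitors of the alpha-MSH evoked signal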
# [8] = HEK293 cell cytotoxicity, dose response, cytotoxicity control, plate reader, cherry-picked samples (AID 743446); format: functional, cell-based
# [9] = target: Cyclin-dependent kinase 5/CDK5 activator 1 (Homo sapiens, UniProt Q00535); test: CDK5/p35 kinase inhibitors, dose response, biochemical, cherry-picked samples, set 2 (AID 504545)
# [10] = inhibitors of HIV Env-driven cell fusion, dose response, cherry-pick (AID 652057); format: functional, cell-based
# [11] = CEM21 lymphoblast cell cytotoxicity, dose response, cytotoxicity control for viral fusion inhibitor project, CellTiter-Glo luminescence, cherry-picked (AID 652042); format: functional, cell-based;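 further: potency for signal decrease meaning cytotoxicity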
# [12] = ZM109 Env clade C HIV-1 fusion inhibitors, dose response, HeLa effector, CEM target cells, luciferase, cherry-pick (AID 652058); format: functional, cell-based
# [13] = off-target signal loss in HeLa-CEM21 co-culture – HeLa F-luc CTL cells, cherry-picked, counter-screen for HIV-1 Env fusion inhibitor project, dose response (AID 652040); format: functional, cell-based;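 further: potency for signal decrease marking cytotoxic or nonspecific inhibition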
# [14] = inhibitors of clade B AD8 Env fusion, dose response, cell-based, cherry-pick (AID 652062); format: functional;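 further: luciferase signal from cell-cell fusion driven by HIV-1 clade B AD8 Env; potency is for inhibitors of fusion seen as a drop in luminescence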
# [15] = target: Cytochrome P450 2C9 (Homo sapiens, UniProt P11712)
# [16] = target: T2, DNA repair and recombination protein RAD54-like (Homo sapiens, UniProt Q92698); test: inhibitors of human RAD54 branch migration, confirmation, biochemical, fluorescence, cherry-picked samples, dose series (AID 651657); format: functional
# T2 sequence (Q92698 whole entry): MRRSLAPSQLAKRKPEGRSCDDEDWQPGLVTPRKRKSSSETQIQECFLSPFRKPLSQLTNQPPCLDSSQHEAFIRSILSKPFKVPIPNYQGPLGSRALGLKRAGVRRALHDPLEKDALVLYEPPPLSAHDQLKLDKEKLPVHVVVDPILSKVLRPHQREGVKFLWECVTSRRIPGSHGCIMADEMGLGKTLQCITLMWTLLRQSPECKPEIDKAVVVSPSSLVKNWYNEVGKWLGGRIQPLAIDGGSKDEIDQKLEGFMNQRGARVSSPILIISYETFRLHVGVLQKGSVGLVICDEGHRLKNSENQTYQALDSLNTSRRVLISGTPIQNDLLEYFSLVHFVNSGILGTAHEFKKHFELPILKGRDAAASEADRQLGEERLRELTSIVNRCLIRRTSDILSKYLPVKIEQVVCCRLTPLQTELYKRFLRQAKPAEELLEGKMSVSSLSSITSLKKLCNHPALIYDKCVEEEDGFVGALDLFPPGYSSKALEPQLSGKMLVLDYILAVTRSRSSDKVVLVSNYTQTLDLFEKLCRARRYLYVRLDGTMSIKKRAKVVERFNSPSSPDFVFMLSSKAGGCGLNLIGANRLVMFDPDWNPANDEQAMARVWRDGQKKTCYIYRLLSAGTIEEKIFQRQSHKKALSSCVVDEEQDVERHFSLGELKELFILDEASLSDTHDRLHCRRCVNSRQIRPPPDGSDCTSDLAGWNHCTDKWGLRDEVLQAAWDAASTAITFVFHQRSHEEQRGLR
# [17] = target: T3, DNA repair protein RAD52 homolog (Homo sapiens, UniProt P43351); format: functional, biochemical
# T3 sequence (P43351 whole entry): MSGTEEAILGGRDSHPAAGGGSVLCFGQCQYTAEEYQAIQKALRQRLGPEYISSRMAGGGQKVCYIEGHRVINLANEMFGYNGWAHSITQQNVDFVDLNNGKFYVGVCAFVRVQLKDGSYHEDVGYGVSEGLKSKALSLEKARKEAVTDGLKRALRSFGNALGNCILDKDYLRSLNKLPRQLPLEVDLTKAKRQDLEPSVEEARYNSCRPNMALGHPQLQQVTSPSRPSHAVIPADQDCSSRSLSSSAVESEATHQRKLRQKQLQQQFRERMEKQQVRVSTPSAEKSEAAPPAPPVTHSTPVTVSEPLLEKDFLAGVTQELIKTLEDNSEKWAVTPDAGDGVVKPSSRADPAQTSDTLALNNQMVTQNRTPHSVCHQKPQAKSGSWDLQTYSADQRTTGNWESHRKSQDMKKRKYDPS
# [18] = target: Paired box protein Pax-8 (Homo sapiens, UniProt Q06710); test: inhibitors of PAX8-driven TPO luciferase reporter, dose response, RMG-I cells, cherry-pick (AID 687027); format: functional, cell-based;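 further: luciferase reporter driven by Pax8 target thyroperoxidase promoter measured by SteadyGlo luminescence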
# [19] = NIH:OVCAR-3 ovarian cancer cell cytotoxicity, dose response, PAX8 inhibitor project, plate reader, dry powder samples (AID 743044); format: functional, cell-based
# [20] = non-specific cell cytotoxicity, dose response, cytotoxicity control for PAX8 inhibitor project, plate reader, dry powder samples (AID 743021); format: functional, cell-based
# [21] = cytotoxicity in OVCAR8 ovarian cancer cells, dose response, PAX8 project, cell-based, plate reader, dry powder samples (AID 743197); format: functional; conditions: OVCAR-8
# Sequence of Paired box protein Pax-8 (Q06710 whole entry): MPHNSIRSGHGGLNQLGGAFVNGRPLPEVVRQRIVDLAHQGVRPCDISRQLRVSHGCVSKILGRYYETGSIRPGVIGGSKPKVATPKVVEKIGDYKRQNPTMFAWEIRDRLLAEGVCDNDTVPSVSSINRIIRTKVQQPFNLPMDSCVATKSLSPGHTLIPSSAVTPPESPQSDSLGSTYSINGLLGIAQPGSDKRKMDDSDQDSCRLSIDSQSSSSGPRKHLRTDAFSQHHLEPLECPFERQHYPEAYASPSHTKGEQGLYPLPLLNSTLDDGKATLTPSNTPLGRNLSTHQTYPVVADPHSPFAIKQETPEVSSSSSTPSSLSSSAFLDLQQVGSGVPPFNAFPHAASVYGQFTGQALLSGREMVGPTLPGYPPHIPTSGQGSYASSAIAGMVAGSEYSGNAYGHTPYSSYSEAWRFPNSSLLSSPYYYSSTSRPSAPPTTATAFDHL
# Sequence of Cytochrome P450 2C9 (P11712 whole entry): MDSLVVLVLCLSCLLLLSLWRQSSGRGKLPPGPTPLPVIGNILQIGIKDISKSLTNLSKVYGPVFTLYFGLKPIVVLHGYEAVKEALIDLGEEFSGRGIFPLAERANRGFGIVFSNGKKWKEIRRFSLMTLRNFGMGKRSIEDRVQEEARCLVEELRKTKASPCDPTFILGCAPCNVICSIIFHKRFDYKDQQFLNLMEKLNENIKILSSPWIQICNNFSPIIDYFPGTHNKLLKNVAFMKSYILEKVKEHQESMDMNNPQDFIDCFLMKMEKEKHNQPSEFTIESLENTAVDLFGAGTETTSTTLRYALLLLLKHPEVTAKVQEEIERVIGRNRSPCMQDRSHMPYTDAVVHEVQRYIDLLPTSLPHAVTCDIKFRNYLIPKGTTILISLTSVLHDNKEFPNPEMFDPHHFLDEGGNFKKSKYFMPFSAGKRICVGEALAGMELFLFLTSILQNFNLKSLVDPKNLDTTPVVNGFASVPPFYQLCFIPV
# Sequence of Cyclin-dependent kinase 5/CDK5 activator 1 (Q00535 whole entry, the tested form may be a part): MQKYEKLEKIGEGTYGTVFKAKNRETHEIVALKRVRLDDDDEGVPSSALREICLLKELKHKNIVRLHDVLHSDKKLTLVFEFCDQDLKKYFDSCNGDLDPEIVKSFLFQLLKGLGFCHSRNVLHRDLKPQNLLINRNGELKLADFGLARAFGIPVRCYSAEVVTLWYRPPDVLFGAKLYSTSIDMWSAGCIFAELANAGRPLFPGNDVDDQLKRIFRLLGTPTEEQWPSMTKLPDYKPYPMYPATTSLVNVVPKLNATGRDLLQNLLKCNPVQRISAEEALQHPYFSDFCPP
# Sequence of Cyclin-dependent kinase 5/CDK5 activator 1 (Q15078 whole entry, further chain, the tested form may be a part): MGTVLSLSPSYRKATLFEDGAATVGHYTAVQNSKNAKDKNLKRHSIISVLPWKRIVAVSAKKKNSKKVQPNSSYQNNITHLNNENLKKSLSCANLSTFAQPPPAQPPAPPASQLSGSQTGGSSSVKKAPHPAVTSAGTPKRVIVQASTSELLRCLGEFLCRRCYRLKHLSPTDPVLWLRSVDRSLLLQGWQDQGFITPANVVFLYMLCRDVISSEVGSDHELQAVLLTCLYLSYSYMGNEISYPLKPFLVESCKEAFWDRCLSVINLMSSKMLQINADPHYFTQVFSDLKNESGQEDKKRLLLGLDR
smiles,measurement,setting,value
Cc1cc(N=Nc2ccc3ccccc3c2)ccc1O,AC50,[1],3.23 µM (active)
same,AC50,[2],3.92 µM (active)
same,EC50,[3],> 67.6 µM (inactive)
COc1ccc(CC(=O)Nc2cccc(-c3nnc(-c4ccc(C)cc4)o3)c2)cc1OC,AC50,[4],33.4 µM (active)
same,AC50,[5],30.3 µM (active)
same,AC50,[6],7.65 µM (active)
same,AC50,[7],8.14 µM (active)
same,AC50,[8],10.7 µM (active)
CC1(C)Cc2c(ccc3ccccc23)C(=O)N1,AC50,[9],22.4 µM (active)
same,AC50,[10],4.84 µM (active)
same,AC50,[11],47.6 µM (active)
same,AC50,[12],8.55 µM (active)
same,AC50,[13],14.1 µM (active)
same,AC50,[14],2.95 µM (active)
same,AC50,[15],inconclusive
CC(=O)Nc1cc(-c2ccc(N3CCN(C)CC3)cc2)cn2c(-c3ccc(S(C)(=O)=O)cc3)cnc12,AC50,[16],20.3 µM (active)
same,AC50,[17],4.37 µM (active)
COc1ccc(S(=O)(=O)N(C)C[C@H]2OCCCC[C@H](C)Oc3ccc(NS(=O)(=O)c4ccc(F)cc4)cc3C(=O)N([C@@H](C)CO)C[C@@H]2C)cc1,AC50,[18],4.67 µM (active)
same,AC50,[19],21.5 µM (active)
same,AC50,[20],56.8 µM (active)
same,AC50,[21],46.1 µM (active)
Cc1ccc(S(=O)(=O)Nc2ccc3c(c2)C(=O)N([C@H](C)CO)C[C@H](C)[C@@H](CN(C)S(=O)(=O)c2ccc(Cl)cc2)OCCCC[C@H](C)O3)cc1,AC50,[18],3.2 µM (active)
same,AC50,[19],14.4 µM (active)
same,AC50,[21],> 70 µM (inactive)
